Results: PubChem BioAssay AID2060337 (Molecular Pharmacology Branch, DTP, NCI, 2025)
“And” between values parts separate entries of the source, which are not always exact repeats. Equal entries are not always repeated.

Tested on: 832693-133-R-J1-PDC multi-cell spheroids, viability
Assay: Anticancer human tumor 832693-133-R-J1-PDC patient-derived head and neck squamous carcinoma cell line growth inhibition [IpAb]
Details: for viability, T/C: stronger effect = lower value
In short: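 Spheroids of 60% malignant cells, 25% HUVEC and 15% MSC were exposed to targeted agents combined with ipatasertib or abemaciclib. Doses started at or near clinical Cmax (10 microM when unknown) and fell in half-log steps.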

[1] = curve of first compound, second compound 0.1 µM
[2] = curve of first compound, second compound 0.316 µM
[3] = curve of first compound, second compound 1 µM
[4] = curve of first compound, second compound 3.16 µM
[5] = curve of first compound, second compound 10 µM
[6] = second compound 0.1 µM, first compound 0.0316 µM
[7] = second compound 0.1 µM, first compound 0.1 µM
[8] = second compound 0.316 µM, first compound 0.0316 µM
[9] = second compound 0.316 µM, first compound 0.1 µM
[10] = second compound 1 µM, first compound 0.0316 µM
[11] = second compound 1 µM, first compound 0.1 µM
[12] = second compound 3.16 µM, first compound 0.0316 µM
[13] = second compound 3.16 µM, first compound 0.1 µM
[14] = second compound 10 µM, first compound 0.0316 µM
[15] = second compound 10 µM, first compound 0.1 µM
[16] = second compound 0.1 µM, first compound 0.316 µM
[17] = second compound 0.1 µM, first compound 1 µM
[18] = second compound 0.1 µM, first compound 3.16 µM
[19] = second compound 0.1 µM, first compound 10 µM
[20] = second compound 0.316 µM, first compound 0.316 µM
[21] = second compound 0.316 µM, first compound 1 µM
[22] = second compound 0.316 µM, first compound 3.16 µM
[23] = second compound 0.316 µM, first compound 10 µM
[24] = second compound 1 µM, first compound 0.316 µM
[25] = second compound 1 µM, first compound 1 µM
[26] = second compound 1 µM, first compound 3.16 µM
[27] = second compound 1 µM, first compound 10 µM
[28] = second compound 3.16 µM, first compound 0.316 µM
[29] = second compound 3.16 µM, first compound 1 µM
[30] = second compound 3.16 µM, first compound 3.16 µM
[31] = second compound 3.16 µM, first compound 10 µM
[32] = second compound 10 µM, first compound 0.316 µM
[33] = second compound 10 µM, first compound 1 µM
[34] = second compound 10 µM, first compound 3.16 µM
[35] = second compound 10 µM, first compound 10 µM
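Also: spheroids exposed to the drugs for one week before the viability readout.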
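For viability, T/C in this document: 100% = DMSO vehicle control wells.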

With `Cn1ncnc1[C@H]1c2n[nH]c(=O)c3cc(F)cc(c23)N[C@@H]1c1ccc(F)cc1` + CC(C)NCC(C(=O)N1CCN(c2ncnc3c2C(C)CC3O)CC1)c1ccc(Cl)cc1 the IC50 [1] was > 100 nM, the IC50 [2] was > 100 nM and the IC50 [3] was 4.7 nM. The IC50 [4] was 8.16 nM, the IC50 [5] was > 100 nM and the viability, T/C (second compound 0.1 µM, first compound 0.000316 µM) was 96%. It also gave a viability, T/C (second compound 0.1 µM, first compound 0.001 µM) of 94%, a viability, T/C (second compound 0.1 µM, first compound 0.00316 µM) of 74.7% and a viability, T/C (second compound 0.1 µM, first compound 0.01 µM) of 80.7%. The viability, T/C [6] was 85.6%, the viability, T/C [7] was 72.4% and the viability, T/C (second compound 0.316 µM, first compound 0.000316 µM) was 77.8%. It also gave a viability, T/C (second compound 0.316 µM, first compound 0.001 µM) of 87.5%, a viability, T/C (second compound 0.316 µM, first compound 0.00316 µM) of 69.2% and a viability, T/C (second compound 0.316 µM, first compound 0.01 µM) of 61.1%. The viability, T/C [8] was 65.3%, the viability, T/C [9] was 52.9% and the viability, T/C (second compound 1 µM, first compound 0.000316 µM) was 59.5%. For the same molecule, the viability, T/C (second compound 1 µM, first compound 0.001 µM) was 56.8%, the viability, T/C (second compound 1 µM, first compound 0.00316 µM) was 49.3% and the viability, T/C (second compound 1 µM, first compound 0.01 µM) was 48%. For the same molecule, the viability, T/C [10] was 42.7%, the viability, T/C [11] was 35.9% and the viability, T/C (second compound 3.16 µM, first compound 0.000316 µM) was 57.9%. It also gave a viability, T/C (second compound 3.16 µM, first compound 0.001 µM) of 61%, a viability, T/C (second compound 3.16 µM, first compound 0.00316 µM) of 56.1% and a viability, T/C (second compound 3.16 µM, first compound 0.01 µM) of 46.5%. It also gave a viability, T/C [12] of 41.7%, a viability, T/C [13] of 36.2% and a viability, T/C (second compound 10 µM, first compound 0.000316 µM) of 83.5%. It also gave a viability, T/C (second compound 10 µM, first compound 0.001 µM) of 69.4%, a viability, T/C (second compound 10 µM, first compound 0.00316 µM) of 65% and a viability, T/C (second compound 10 µM, first compound 0.01 µM) of 62.6%. For the same molecule, the viability, T/C [14] was 63.2% and the viability, T/C [15] was 47.8%.
`Cn1cnc2c(F)c(Nc3ccc(Br)cc3Cl)c(C(=O)NOCCO)cc21` + CCN1CCN(Cc2ccc(Nc3ncc(F)c(-c4cc(F)c5nc(C)n(C(C)C)c5c4)n3)nc2)CC1 was tested, and the IC50 (curve of first compound, second compound 0.01 µM) was 118 nM, the IC50 (curve of first compound, second compound 0.0316 µM) was 49 nM and the IC50 [1] was < 9.49 nM. For the same molecule, the IC50 [2] was 15.3 nM, the IC50 [3] was 170 nM and the viability, T/C (second compound 0.01 µM, first compound 0.00949 µM) was 62.4%. The viability, T/C (second compound 0.01 µM, first compound 0.03 µM) was 58.7%, the viability, T/C (second compound 0.01 µM, first compound 0.0949 µM) was 50.4% and the viability, T/C (second compound 0.01 µM, first compound 0.3 µM) was 41.3%. The viability, T/C (second compound 0.01 µM, first compound 0.949 µM) was 34%, the viability, T/C (second compound 0.01 µM, first compound 3 µM) was 14.1% and the viability, T/C (second compound 0.0316 µM, first compound 0.00949 µM) was 54.3%. For the same molecule, the viability, T/C (second compound 0.0316 µM, first compound 0.03 µM) was 57.5%, the viability, T/C (second compound 0.0316 µM, first compound 0.0949 µM) was 44.5% and the viability, T/C (second compound 0.0316 µM, first compound 0.3 µM) was 35.5%. The viability, T/C (second compound 0.0316 µM, first compound 0.949 µM) was 29.1%, the viability, T/C (second compound 0.0316 µM, first compound 3 µM) was 13.4% and the viability, T/C (second compound 0.1 µM, first compound 0.00949 µM) was 47.2%. The viability, T/C (second compound 0.1 µM, first compound 0.03 µM) was 47.4%, the viability, T/C (second compound 0.1 µM, first compound 0.0949 µM) was 36.4% and the viability, T/C (second compound 0.1 µM, first compound 0.3 µM) was 32.1%. It also gave a viability, T/C (second compound 0.1 µM, first compound 0.949 µM) of 24.4%, a viability, T/C (second compound 0.1 µM, first compound 3 µM) of 12.6% and a viability, T/C (second compound 0.316 µM, first compound 0.00949 µM) of 54.7%. For the same molecule, the viability, T/C (second compound 0.316 µM, first compound 0.03 µM) was 43.9%, the viability, T/C (second compound 0.316 µM, first compound 0.0949 µM) was 36.1% and the viability, T/C (second compound 0.316 µM, first compound 0.3 µM) was 34.8%. The viability, T/C (second compound 0.316 µM, first compound 0.949 µM) was 25.3%, the viability, T/C (second compound 0.316 µM, first compound 3 µM) was 15.1% and the viability, T/C (second compound 1 µM, first compound 0.00949 µM) was 64.6%. It also gave a viability, T/C (second compound 1 µM, first compound 0.03 µM) of 58.2%, a viability, T/C (second compound 1 µM, first compound 0.0949 µM) of 51.5% and a viability, T/C (second compound 1 µM, first compound 0.3 µM) of 47.9%. The viability, T/C (second compound 1 µM, first compound 0.949 µM) was 40.7% and the viability, T/C (second compound 1 µM, first compound 3 µM) was 28.2%.
With `Cn1ncc(Cl)c1-c1cc(C(=O)NC(CN)Cc2cccc(F)c2)sc1Cl` (configuration not stated) + CC(C)NCC(C(=O)N1CCN(c2ncnc3c2C(C)CC3O)CC1)c1ccc(Cl)cc1 the IC50 [1] was 4960 nM, the IC50 [2] was 4800 nM and the IC50 [3] was 3750 nM. For the same molecule, the IC50 [4] was 4140 nM, the IC50 [5] was 2630 nM and the viability, T/C [6] was 94.7%. It also gave a viability, T/C [7] of 87.5%, a viability, T/C [16] of 75.5% and a viability, T/C [17] of 61.1%. For the same molecule, the viability, T/C [18] was 90.1%, the viability, T/C [19] was 0.23% and the viability, T/C [8] was 82.7%. The viability, T/C [9] was 73.1%, the viability, T/C [20] was 79.9% and the viability, T/C [21] was 63.2%. It also gave a viability, T/C [22] of 92.3%, a viability, T/C [23] of 0.22% and a viability, T/C [10] of 47.9%. For the same molecule, the viability, T/C [11] was 59.8%, the viability, T/C [24] was 54.6% and the viability, T/C [25] was 56.6%. It also gave a viability, T/C [26] of 74.3%, a viability, T/C [27] of 0.2% and a viability, T/C [12] of 50.1%. For the same molecule, the viability, T/C [13] was 59.1%, the viability, T/C [28] was 66.1% and the viability, T/C [29] was 70.3%. It also gave a viability, T/C [30] of 80.8%, a viability, T/C [31] of 0.2% and a viability, T/C [14] of 67.2%. The viability, T/C [15] was 73%, the viability, T/C [32] was 69.5% and the viability, T/C [33] was 73.8%. The viability, T/C [34] was 46.1% and the viability, T/C [35] was 0.24%.
`CC(=O)c1c(C)c2cnc(Nc3ccc(N4CCNCC4)cn3)nc2n(C2CCCC2)c1=O` was tested, and the viability, T/C (compound 0.000949 µM) was 87.4% and 105%, the viability, T/C (compound 0.003 µM) was 87.3% and 96.4% and the viability, T/C (compound 0.00949 µM) was 79.2% and 84.6%. The viability, T/C (compound 0.03 µM) was 66.9% and 69.8%, the viability, T/C (compound 0.0949 µM) was 69.9% and 64.3% and the viability, T/C (compound 0.3 µM) was 51% and 55.9%. For the same molecule, the IC50 (curve of compound) was > 300 nM.
`Cn1nccc1Nc1nccc(-c2ccn(C(CO)c3ccc(Cl)c(F)c3)c(=O)c2)n1` (configuration not stated) + CC(C)NCC(C(=O)N1CCN(c2ncnc3c2C(C)CC3O)CC1)c1ccc(Cl)cc1 showed an IC50 [1] of 383 nM, an IC50 [2] of 87.4 nM and an IC50 [3] of 37.1 nM. For the same molecule, the IC50 [4] was 46.8 nM, the IC50 [5] was 326 nM and the viability, T/C [6] was 90.9%. The viability, T/C [7] was 64.3%, the viability, T/C [16] was 55.9% and the viability, T/C [17] was 41.2%. It also gave a viability, T/C [18] of 23.1%, a viability, T/C [19] of 21.5% and a viability, T/C [8] of 60.1%. It also gave a viability, T/C [9] of 50%, a viability, T/C [20] of 35.2% and a viability, T/C [21] of 27.8%. The viability, T/C [22] was 19.7%, the viability, T/C [23] was 11.2% and the viability, T/C [10] was 50.7%. For the same molecule, the viability, T/C [11] was 43.2%, the viability, T/C [24] was 26.6% and the viability, T/C [25] was 20.9%. For the same molecule, the viability, T/C [26] was 14%, the viability, T/C [27] was 7.18% and the viability, T/C [12] was 51.5%. For the same molecule, the viability, T/C [13] was 47.3%, the viability, T/C [28] was 30.6% and the viability, T/C [29] was 19.9%. For the same molecule, the viability, T/C [30] was 12.6%, the viability, T/C [31] was 8.87% and the viability, T/C [14] was 56.3%. For the same molecule, the viability, T/C [15] was 59.6%, the viability, T/C [32] was 50.9% and the viability, T/C [33] was 28.7%. For the same molecule, the viability, T/C [34] was 17.9% and the viability, T/C [35] was 10.5%.
